Assay results reported in ChEMBL document CHEMBL1133373, “Chemical and enzymatic modifications of integric acid and HIV-1 integrase inhibitory activity” (Bioorg Med Chem Lett, 2000).
Activity calls are given as the source filed them. The calls are words filed in the database; no cut-off is given here.

What was measured:
[1] = biological target: Human immunodeficiency virus type 1 integrase (Human immunodeficiency virus 1, UniProt Q7ZJM1); assay: Inhibitory activity against HIV-1 integrase
[2] = biological target: Human immunodeficiency virus type 1 integrase (Human immunodeficiency virus 1) (UniProt Q7ZJM1); assay: Activity against HIV-1 integrase in range 5-20 uM compared to integric acid.
[3] = biological target: Human immunodeficiency virus type 1 integrase (Human immunodeficiency virus 1) (UniProt Q7ZJM1); assay: Compound was tested for strand transfer activity against HIV-1 integrase at 50 uM; weak inhibition

Chain of Human immunodeficiency virus type 1 integrase (Q7ZJM1 whole entry): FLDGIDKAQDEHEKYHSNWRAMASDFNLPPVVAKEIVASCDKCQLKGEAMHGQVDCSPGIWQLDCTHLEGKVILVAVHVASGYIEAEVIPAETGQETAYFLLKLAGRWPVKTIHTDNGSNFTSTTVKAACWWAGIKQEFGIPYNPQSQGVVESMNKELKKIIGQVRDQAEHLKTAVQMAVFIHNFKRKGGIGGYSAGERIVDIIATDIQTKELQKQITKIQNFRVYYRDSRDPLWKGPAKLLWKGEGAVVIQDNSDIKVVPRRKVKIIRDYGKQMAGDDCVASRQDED
Chain of Human immunodeficiency virus type 1 integrase (Human immunodeficiency virus 1) (Q7ZJM1 as listed by the source): as the sequence (Q7ZJM1 whole entry) above

SMILES | IC50 [1] [µM] | Activity [2] | Activity [3]
CC1=C2C[C@@]3(C)C(=CCC[C@@H]3C(=O)O)C=C2OC1=O | > 100 |  | 
C=C/C(C)=C1\C[C@@]2(C)C(=CC1=O)[C@H](OC(=O)/C(C)=C/C(C)CCCC)CC[C@@H]2C(=O)O (stereo not given in full) | 75 |  | 
C=CC(=C)[C@@H]1C[C@@]2(C)C(=CC1=O)[C@H](OC(=O)/C(C)=C/C(C)CCCC)CC[C@@H]2C(=O)O (stereo not given in full) | 30 |  | 
CCCCC(C)/C=C(\C)C(=O)O[C@@H]1CC[C@H](C(=O)O)[C@@]2(C)C[C@H]3[C@@H](C)CO[C@]3(O)C[C@H]12 (stereo not given in full) | 45 |  | 
C=C(CO)[C@@H]1C[C@@]2(C)C(=C[C@H]1O)[C@H](OC(=O)/C(C)=C/C(C)CCCC)CC[C@@H]2C(=O)O (stereo not given in full) | 73 |  | 
CCCCC(C)/C=C(\C)C(=O)O[C@@H]1CC[C@H](C(=O)O)[C@@]2(C)C[C@@H](C(C)C(O)O)C(=O)C=C12 (stereo not given in full) | 40 |  | 
CCCCC(C)/C=C(\C)C(=O)O[C@@H]1CC[C@H](C(=O)O)[C@@]2(C)C[C@H]3[C@H](C)CO[C@]3(O)C[C@H]12 (stereo not given in full) | 100 |  | 
CCCCC(C)/C=C(\C)C(=O)O[C@@H]1CC[C@H](C(=O)O)[C@@]2(C)CC3C(C)C(O)OC3(O)C=C12 (stereo not given in full) | 40 |  | 
C=C(C=O)[C@@H]1C[C@@]2(C)C(=CC1=O)[C@H](OC(=O)/C(C)=C/C(C)CCCC)CC[C@@H]2C(=O)OP(=O)(OCC)OCC (stereo not given in full) | 81 |  | 
C=C(C=O)[C@@H]1C[C@@]2(C)C(=CC1=O)[C@H](OC(=O)/C(C)=C/C(C)CCCC)CC[C@@H]2C(=O)N1CCN(C(=O)[C@H]2CC[C@@H](OC(=O)/C(C)=C/C(C)CCCC)C3=CC(=O)[C@H](C(=C)C=O)C[C@@]32C)CC1 (stereo not given in full) | 24 | Active | 
C=C(C=O)[C@@H]1C[C@@]2(C)C(=CC1=O)[C@H](OC(=O)/C(C)=C/C(C)CCCC)CC[C@@H]2C(=O)O/C(=N\C1CCCCC1)NC1CCCCC1 (stereo not given in full) | 88 |  | 

These reach a lower IC50 [1]. Values come first.

IC50 [1] [µM] | Activity [2] | Activity [3] | SMILES
3 | Active |  | C=C(C=O)[C@@H]1C[C@@]2(C)C(=CC1=O)[C@H](OC(=O)/C(C)=C/C(C)CCCC)CC[C@@H]2C(=O)N[C@@H](CC(C)C)C(=O)OC (stereo not given in full)
11 | Active | weak inhibition | CCCCC(C)/C=C(\C)C(=O)O[C@@H]1CC[C@H](C(=O)O)[C@@]2(C)C[C@@H]([C@H](C)C=O)C(=O)C=C12 (stereo not given in full)
3 | Active |  | C=C(C=O)[C@@H]1C[C@@]2(C)C(=CC1=O)[C@H](OC(=O)/C(C)=C/C(C)CCCC)CC[C@@H]2C(=O)O (stereo not given in full)
5 | Active |  | C=C(C=O)[C@@H]1C[C@@]2(C)C(=CC1=O)[C@H](OC(=O)/C(C)=C/C(C)CCCC)CC[C@@H]2C(=O)ON[C@@H](C(=O)OC)c1ccccc1 (stereo not given in full)
5 | Active |  | C=C(C=O)[C@@H]1C[C@@]2(C)C(=CC1=O)[C@H](OC(=O)/C(C)=C/C(C)CCCC)CC[C@@H]2C(=O)ON[C@H](C(=O)OC)c1ccccc1 (stereo not given in full)
11 | Active | weak inhibition | CCCCC(C)/C=C(\C)C(=O)O[C@@H]1CC[C@H](C(=O)O)[C@@]2(C)CC([C@@H](C)C=O)C(=O)C=C12 (stereo not given in full)
12 | Active |  | CCCCC(C)/C=C(\C)C(=O)O (stereo not given)
10 | Active |  | C=C(C=O)[C@@H]1C[C@@]2(C)C(=CC1=O)[C@H](OC(=O)/C(C)=C/C(C)CCCC)CC[C@@H]2C(=O)NCCNC(=O)[C@H]1CC[C@@H](OC(=O)/C(C)=C/C(C)CCCC)C2=CC(=O)[C@H](C(=C)C=O)C[C@@]21C (stereo not given in full)
